Test results: ChEMBL document CHEMBL1134277, “N-[3-(2-Dimethylaminoethyl)-2-methyl-1H- indol-5-yl]-4-fluorobenzamide: a potent, selective, and orally active 5-HT(1F) receptor agonist potentially useful for migraine therapy” (J Med Chem, 2001)

Tests used:
[1] = target: T1, 5-hydroxytryptamine receptor 1F (Homo sapiens, UniProt P30939); assay: Binding affinity towards human 5-hydroxytryptamine 1F receptor
T1 sequence (P30939 whole entry): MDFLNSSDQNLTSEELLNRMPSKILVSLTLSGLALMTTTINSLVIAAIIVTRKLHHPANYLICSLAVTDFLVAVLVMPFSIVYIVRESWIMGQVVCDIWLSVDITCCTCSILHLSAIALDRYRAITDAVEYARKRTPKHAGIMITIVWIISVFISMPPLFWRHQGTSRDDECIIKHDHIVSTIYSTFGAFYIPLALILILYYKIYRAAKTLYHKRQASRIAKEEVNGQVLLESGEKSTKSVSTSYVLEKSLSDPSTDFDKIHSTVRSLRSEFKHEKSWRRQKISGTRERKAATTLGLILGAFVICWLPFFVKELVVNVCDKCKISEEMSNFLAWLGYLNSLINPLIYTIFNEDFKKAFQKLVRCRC

[2] = Selectivity is the binding affinity towards human 5-HT1A receptor to that of human 5-HT1F receptor
[3] = Selectivity is the binding affinity towards human 5-HT1D receptor to that of human 5-HT1F receptor
[4] = Selectivity is the binding affinity towards human 5-HT1B receptor to that of human 5-HT1F receptor
[5] = target: T2, 5-hydroxytryptamine receptor 1F (Homo sapiens) (UniProt P30939); assay: In vitro agonist potency against human 5-hydroxytryptamine 1F receptor; type: functional
T2 sequence (whole entry): T1 sequence (P30939 whole entry)

With `CN(C)CCc1c[nH]c2cccc(NC(=O)c3ccc(F)cc3)c12` the Ki [1] was 3.8 nM, the Selectivity [2] was 3 and the Selectivity [3] was 3. It also gave a Selectivity [4] of 9.
`CNS(=O)(=O)Cc1ccc2[nH]cc(CCN(C)C)c2c1` showed an Emax [5] of 98%.
